Counter-ions that a name gives are not always drawn. Like-named read-outs stand apart in the source and are kept apart here.
Tests used:
Assay type in all cases: biochemical
CAMKKb = molecular target: T1, CAMKKb (Homo sapiens, UniProt Q96RR4); test: CAMKKb protein kinase assay; conditions: for remaining activity at 10 µM: 10 μM compound; for residual kinase activity CAMKKb: 1 μm compound; for remaining activity at 1 µM: 1 μM compound
T1 construct: All protein kinases were of human origin and encoded full length proteins, unless indicated otherwise; made in house
Text: (§1) All protein kinases were of human origin and encoded full length proteins, unless indicated otherwise. They were either expressed as glutathione S-transferase (GST) fusion proteins in Escherichia Coli or as hexahistidine (His6)-tagged proteins in insect Sf21 cells. GST fusion proteins were purified by affinity chromatography on glutathione-Sepharose, and His6-tagged proteins on nickel/nitriloacetate-agarose. The procedures for expressing some of the protein kinases used herein have been detailed previously.^8,9 The following sections outline the DNA vectors synthesised and the procedures used to express and purifying protein kinases that have not been reported previously.
(§2) All assays (25.5 μl) were carried out at room temperature (21° C.) and were linear with respect to time and enzyme concentration under the conditions used. Assays were performed for 30 min using Multidrop Micro reagent dispensers (Thermo Electron Corporation, Waltham, Mass. 02454, USA) in a 96-well format. The concentration of magnesium acetate in the assays was 10 mM and the [γ-33P] ATP (800 cpm/pmol) was used at 5, 20 or 50 μM as indicated, in order to be at or below the Km for ATP for each enzyme. Protein kinases assayed at 5 μM ATP were: —ERK1, ERK8, PKBα, MARK3, Aurora C. Protein kinases assayed at 20 μM ATP were: —JNK1, PDK1, CHK1, CHK2, CDK2 and Aurora B. Protein kinases assayed at 50 μM ATP were: —MNK2, IKKepsilon and TBK1.
(§3) The assays were initiated with MgATP, stopped by addition of 5 μl of 0.5 M orthophosphoric acid and spotted on to P81 filterplates using a unifilter harvester (PerkinElmer, Boston, Mass. 02118, USA). The IC50 values of inhibitors were determined after carrying out assays at 10 different concentrations of each compound.
(§4) Unless stated otherwise, enzymes were diluted in 50 mM Tris/HCl pH 7.5, 0.1 mM EGTA, 1 mg/ml BSA, 0.1% (v/v) 2-mercaptoethanol and assayed in 50 mM Tris/HCl pH 7.5, 0.1 mM EGTA, 0.1% (v/v) 2-mercaptoethanol.

PKD1 = molecular target: T2, PKD1 (Homo sapiens, UniProt Q15139); test: PKD1 protein kinase assay; conditions: for remaining activity at 10 µM: 10 μM compound; for residual kinase activity PKD1: 1 μm compound; for remaining activity at 1 µM: 1 μM compound
T2 construct: All protein kinases were of human origin and encoded full length proteins, unless indicated otherwise; made in house
T2 sequence (Q15139 1-912): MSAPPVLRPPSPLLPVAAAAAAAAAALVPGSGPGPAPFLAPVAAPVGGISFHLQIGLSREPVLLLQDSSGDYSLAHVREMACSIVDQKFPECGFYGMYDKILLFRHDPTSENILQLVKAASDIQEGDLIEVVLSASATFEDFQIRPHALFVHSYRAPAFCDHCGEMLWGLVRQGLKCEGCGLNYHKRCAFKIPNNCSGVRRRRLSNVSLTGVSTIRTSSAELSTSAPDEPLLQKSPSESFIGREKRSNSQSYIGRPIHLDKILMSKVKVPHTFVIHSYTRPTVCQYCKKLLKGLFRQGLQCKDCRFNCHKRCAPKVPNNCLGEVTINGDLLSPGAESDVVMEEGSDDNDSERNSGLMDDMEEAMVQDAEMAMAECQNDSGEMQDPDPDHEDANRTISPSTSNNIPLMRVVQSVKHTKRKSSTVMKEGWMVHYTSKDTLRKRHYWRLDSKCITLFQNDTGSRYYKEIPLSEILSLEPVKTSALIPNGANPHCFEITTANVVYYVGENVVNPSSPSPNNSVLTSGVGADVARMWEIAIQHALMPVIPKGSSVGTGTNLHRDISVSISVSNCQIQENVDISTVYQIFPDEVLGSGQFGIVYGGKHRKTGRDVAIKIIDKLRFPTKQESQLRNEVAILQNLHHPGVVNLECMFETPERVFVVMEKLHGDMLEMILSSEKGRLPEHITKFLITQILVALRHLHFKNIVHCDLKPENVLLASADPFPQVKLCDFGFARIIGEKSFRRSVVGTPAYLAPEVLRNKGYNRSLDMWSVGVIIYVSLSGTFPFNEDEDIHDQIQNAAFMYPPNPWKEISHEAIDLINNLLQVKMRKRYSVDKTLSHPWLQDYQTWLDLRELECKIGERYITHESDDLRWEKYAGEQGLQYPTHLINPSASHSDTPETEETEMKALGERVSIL
Text: as §1, §2, §3, §4

DYRK1A = molecular target: T3, DYRK1A (Homo sapiens, UniProt Q13627); test: DYRK1A protein kinase assay; conditions: for remaining activity at 10 µM: 10 μM compound; for residual kinase activity DYRK1A: 1 μm compound; for remaining activity at 1 µM: 1 μM compound
T3 construct: All protein kinases were of human origin and encoded full length proteins, unless indicated otherwise; made in house
Text: as §1, §2, §3, §4

MST2 = molecular target: T4, MST2 (Homo sapiens, UniProt Q13188); test: MST2 protein kinase assay; conditions: for remaining activity at 10 µM: 10 μM compound; for residual kinase activity MST2: 1 μm compound; for remaining activity at 1 µM: 1 μM compound
T4 construct: All protein kinases were of human origin and encoded full length proteins, unless indicated otherwise; made in house
T4 sequence (Q13188 1-491): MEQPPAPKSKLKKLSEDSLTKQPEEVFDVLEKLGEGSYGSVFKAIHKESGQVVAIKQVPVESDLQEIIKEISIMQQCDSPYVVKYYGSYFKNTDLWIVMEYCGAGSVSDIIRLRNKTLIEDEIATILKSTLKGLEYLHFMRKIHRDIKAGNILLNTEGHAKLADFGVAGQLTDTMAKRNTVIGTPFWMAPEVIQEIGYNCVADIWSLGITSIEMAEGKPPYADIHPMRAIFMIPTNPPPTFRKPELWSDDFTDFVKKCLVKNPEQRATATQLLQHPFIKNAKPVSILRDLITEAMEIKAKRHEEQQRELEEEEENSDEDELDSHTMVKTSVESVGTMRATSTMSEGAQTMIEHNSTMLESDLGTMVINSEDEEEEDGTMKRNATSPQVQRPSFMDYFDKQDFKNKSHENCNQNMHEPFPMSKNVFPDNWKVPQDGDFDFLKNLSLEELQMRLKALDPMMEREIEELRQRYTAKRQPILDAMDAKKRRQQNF
Text: as §1, §2, §3, §4

MELK = molecular target: T5, MELK (Homo sapiens, UniProt Q14680); test: MELK protein kinase assay; conditions: for remaining activity at 10 µM: 10 μM compound; for residual kinase activity MELK: 1 μm compound; for remaining activity at 1 µM: 1 μM compound
T5 construct: All protein kinases were of human origin and encoded full length proteins, unless indicated otherwise; made in house
Text: as §1, §2, §3, §4

RSK2 = molecular target: T6, RSK2 (Homo sapiens, UniProt P51812); test: RSK2 protein kinase assay; conditions: for remaining activity at 10 µM: 10 μM compound; for residual kinase activity RSK2: 1 μm compound; for remaining activity at 1 µM: 1 μM compound
T6 construct: All protein kinases were of human origin and encoded full length proteins, unless indicated otherwise; made in house
Text: as §1, §2, §3, §4

[1] = read-out: residual kinase activity CAMKKb
[2] = read-out: residual kinase activity PKD1
[3] = read-out: residual kinase activity DYRK1A
[4] = read-out: residual kinase activity MST2
[5] = read-out: residual kinase activity MELK
[6] = read-out: residual kinase activity RSK2
[7] = CAMKKb, read-out: residual kinase activity
[8] = PKD1, read-out: residual kinase activity
[9] = DYRK1A, read-out: residual kinase activity
[10] = MST2, read-out: residual kinase activity
[11] = MELK, read-out: residual kinase activity
[12] = RSK2, read-out: residual kinase activity

T1 sequence (Q96RR4 whole entry): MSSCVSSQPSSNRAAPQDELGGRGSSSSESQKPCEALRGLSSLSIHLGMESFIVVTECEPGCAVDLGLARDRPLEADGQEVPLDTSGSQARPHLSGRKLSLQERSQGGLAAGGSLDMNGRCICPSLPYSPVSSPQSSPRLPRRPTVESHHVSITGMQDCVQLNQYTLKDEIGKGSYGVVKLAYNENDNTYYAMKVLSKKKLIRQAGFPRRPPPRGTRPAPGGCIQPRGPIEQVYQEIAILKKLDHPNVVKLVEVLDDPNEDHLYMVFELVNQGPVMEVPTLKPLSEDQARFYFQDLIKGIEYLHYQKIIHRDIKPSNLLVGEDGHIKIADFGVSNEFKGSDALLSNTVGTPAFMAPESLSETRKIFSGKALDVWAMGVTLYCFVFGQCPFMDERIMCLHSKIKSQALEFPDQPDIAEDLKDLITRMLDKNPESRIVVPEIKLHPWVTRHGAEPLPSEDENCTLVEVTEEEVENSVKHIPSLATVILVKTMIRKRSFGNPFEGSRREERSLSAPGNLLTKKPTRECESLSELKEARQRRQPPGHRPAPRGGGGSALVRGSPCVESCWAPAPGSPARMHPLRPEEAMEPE
T6 sequence (P51812 whole entry): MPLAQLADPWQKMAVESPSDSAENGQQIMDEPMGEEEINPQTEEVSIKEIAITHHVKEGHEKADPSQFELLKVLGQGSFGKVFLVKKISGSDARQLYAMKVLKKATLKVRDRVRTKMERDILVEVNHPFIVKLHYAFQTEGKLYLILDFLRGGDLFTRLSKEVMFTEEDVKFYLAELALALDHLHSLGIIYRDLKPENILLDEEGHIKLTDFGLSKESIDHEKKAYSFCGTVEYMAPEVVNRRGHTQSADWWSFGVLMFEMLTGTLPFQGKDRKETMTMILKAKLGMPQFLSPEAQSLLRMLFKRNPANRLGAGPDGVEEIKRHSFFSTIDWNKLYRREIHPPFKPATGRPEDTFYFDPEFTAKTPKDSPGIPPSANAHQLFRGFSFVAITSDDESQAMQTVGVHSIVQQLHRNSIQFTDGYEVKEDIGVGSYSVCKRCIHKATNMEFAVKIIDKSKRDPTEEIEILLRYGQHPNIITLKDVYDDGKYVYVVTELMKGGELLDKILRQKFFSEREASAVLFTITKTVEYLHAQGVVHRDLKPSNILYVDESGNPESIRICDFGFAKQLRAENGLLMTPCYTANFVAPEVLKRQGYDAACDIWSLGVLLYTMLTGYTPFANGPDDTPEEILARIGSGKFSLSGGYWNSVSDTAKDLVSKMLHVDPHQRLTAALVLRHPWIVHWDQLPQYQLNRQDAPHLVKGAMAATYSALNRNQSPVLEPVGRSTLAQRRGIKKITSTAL
T5 sequence (Q14680 whole entry): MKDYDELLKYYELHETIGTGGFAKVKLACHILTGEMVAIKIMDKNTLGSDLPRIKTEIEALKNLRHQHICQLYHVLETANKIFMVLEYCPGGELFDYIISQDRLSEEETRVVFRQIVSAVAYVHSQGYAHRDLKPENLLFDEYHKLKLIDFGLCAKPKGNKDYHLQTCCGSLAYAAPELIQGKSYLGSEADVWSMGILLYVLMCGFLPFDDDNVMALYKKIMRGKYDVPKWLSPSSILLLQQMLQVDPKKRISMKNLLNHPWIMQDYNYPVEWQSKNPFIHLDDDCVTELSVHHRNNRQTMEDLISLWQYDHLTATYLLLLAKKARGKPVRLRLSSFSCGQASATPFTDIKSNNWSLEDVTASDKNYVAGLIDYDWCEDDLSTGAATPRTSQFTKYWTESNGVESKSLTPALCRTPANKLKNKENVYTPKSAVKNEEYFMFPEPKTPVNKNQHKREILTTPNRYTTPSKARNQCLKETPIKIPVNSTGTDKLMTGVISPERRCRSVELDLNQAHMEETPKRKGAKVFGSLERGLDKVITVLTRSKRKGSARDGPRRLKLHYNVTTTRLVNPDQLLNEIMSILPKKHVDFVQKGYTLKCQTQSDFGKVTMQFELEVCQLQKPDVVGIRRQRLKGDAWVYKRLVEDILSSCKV

Row | SMILES | remaining activity at 10 µM (CAMKKb; [1]) | residual kinase activity CAMKKb (CAMKKb) | remaining activity at 10 µM (PKD1; [2]) | residual kinase activity PKD1 (PKD1) | remaining activity at 10 µM (DYRK1A; [3]) | residual kinase activity DYRK1A (DYRK1A) | remaining activity at 10 µM (MST2; [4]) | residual kinase activity MST2 (MST2) | remaining activity at 1 µM (CAMKKb; [7]) | remaining activity at 10 µM (CAMKKb; [7]) | remaining activity at 1 µM (PKD1; [8]) | remaining activity at 10 µM (PKD1; [8]) | remaining activity at 1 µM (DYRK1A; [9]) | remaining activity at 10 µM (DYRK1A; [9]) | remaining activity at 1 µM (MST2; [10]) | remaining activity at 10 µM (MST2; [10]) | remaining activity at 1 µM (MELK; [11]) | remaining activity at 10 µM (MELK; [11]) | remaining activity at 1 µM (RSK2; [12]) | remaining activity at 10 µM (RSK2; [12]) | further results
1 | O=C(NCCCNc1nc(Nc2cccc(F)c2)ncc1Br)C1CCC1 [Compound A, cyclobutanecarboxylic acid {3-[5-bromo-2-(3-fluoro-phenylamino)-pyrimidin-4-ylamino]-propyl}-amide, reference compound] | 22% | 27% | 1% | 7% | 38% | 74% | 6% | 29% | – | – | – | – | – | – | – | – | – | – | – | – | remaining activity at 10 µM (MELK; [5]): 14%; residual kinase activity MELK (MELK): 15%; remaining activity at 10 µM (RSK2; [6]): 9%; residual kinase activity RSK2 (RSK2): 38%
2 | O=C(NCCCNc1nc(Nc2cccc(F)c2)ncc1C1CC1)C1CCC1 [Example 23, Cyclobutanecarboxylic acid {3-[5-cyclopropyl-2-(3-fluoro-phenylamino)-pyrimidin-4-ylamino]-propyl}-amide] | 8% | 43% | 53% | 68% | 56% | 78% | 33% | 73% | 43% | 8% | 68% | 53% | 78% | 56% | 73% | 33% | 23% | 3% | 44% | 14% | remaining activity at 10 µM (MELK; [5]): 3%; residual kinase activity MELK (MELK): 23%; remaining activity at 10 µM (RSK2; [6]): 14%; residual kinase activity RSK2 (RSK2): 44%
3 | O=C(NCCCNc1nc(Nc2cccc(N3CCCC3=O)c2)ncc1C1CC1)c1cccs1 [Example 47, Thiophene-2-carboxylic acid (3-{5-cyclopropyl-2-[3-(2-oxo-pyrrolidin-1-yl)-phenylamino]-pyrimidin-4-ylamino}-propyl)-amide. Hydrochloride salt] | – | – | – | – | – | – | – | – | 61% | 36% | 57% | 52% | 84% | 78% | 84% | 70% | 14% | 27% | 65% | 28% | –
4 | O=C(NCCCNc1nc(Nc2cccnc2)ncc1C1CC1)c1cccs1 [Example 50, Thiophene-2-carboxylic acid {3-[5-cyclopropyl-2-(pyridin-3-ylamino)-pyrimidin-4-ylamino]-propyl}-amide] | – | – | – | – | – | – | – | – | 72% | 40% | 60% | 36% | 88% | 57% | 73% | 33% | 29% | 17% | 69% | 28% | –

— patent US20100056524A1, “Compound” (priority 2008, published 2010)
